{
  "source": "patent US20080261314A1",
  "about": "“FLUORESCENT PROBE FOR ZINC” (DAIICHI PURE CHEMICALS CO., LTD., priority 2001, published 2008)",
  "type_in_all_cases": "physicochemical",
  "key": {"[1]": {"assay": "Ratio measurement of fluorescence intensities at two excitation wavelengths on addition of zinc ions", "settings": "excitation 335 nm and 354 nm, fluorescence 530 nm; 20 μM compound, ZnSO4 up to 20 μM, HEPES pH 7.4", "description": "(§1) To a 20 μM solution of Compound (11) in 100 mM HEPES buffer (pH 7.4), ZnSO4 was added up to 20 μM. Change of the ratio of fluorescence intensities at excitation wavelengths at 335 nm and 354 nm with the fluorescence wavelengths fixed at 530 nm are shown (FIG. 2 (A)). To a 20 μM solution of Compound (11) in 100 mM HEPES buffer (pH 7.4), sodium ions, calcium ions, potassium ions, or magnesium ions were added up to 400 μM. Changes of the ratio of fluorescence intensities at excitation wavelengths at 335 nm and 354 nm with the fluorescence wavelengths fixed at 530 nm are shown (FIG. 2 (B)).\n(§2) Studies of fluorescence characteristics and the ratio measurements of Compound (14) and (15) were conducted in the same manners as those described in Example 2 and Example 3. Fluorescent characteristics of Compound (14) and (15) before and after addition of zinc ions (20 μM ZnSO4) are shown in the following Table 2."}, "[2]": {"assay": "Fluorescence characteristics (excitation and emission maxima) before and after addition of zinc ions", "description": "Fluorescence characteristics of Compound (11) were studied. Compound (11) was dissolved in 100 mM HEPES buffer (pH 7.4, containing 0.4% DMSO as co-solvent) up to 20 μM and measured excitation spectra.\nHitachi F-4500 fluorescence measurement apparatus\nScanning rate: 240 nm/min\nPhotomultiplier voltage: 950 V\nMeasurement temperature: 25° C.\nas §2"}, "[3]": {"assay": "Ratio measurement on addition of ions other than zinc ion (selectivity)", "description": "as §1, §2"}, "[4]": {"assay": "Spectrum measurement (UV, excitation and fluorescence spectra) on addition of ZnSO4", "description": "To a 15 μM solution of Compound (14) in 100 mM HEPES buffer (pH 7.4), ZnSO4 was added up to 15 μM. Spectra of the solution were measured under the measurement condition described in Example 2. The same spectral measurement was also conducted for Compound (11) as a reference. In FIG. 3, a) UV spectrum change of Compound (14), b) excitation spectra of Compound (14) with fluorescence wavelengths fixed at 495 nm, c) UV spectrum change of Compound (11), and d) excitation spectra of Compound (11) with fluorescence wavelengths fixed at 530 nm are shown. Further, to a 10 μM solution of Compound (15) in 100 mM HEPES buffer (pH 7.4), ZnSO4 was added up to 200 μM. Spectra were measured under the condition described in Example 2."}, "[5]": {"settings": "20 μM compound, 20 μM ZnSO4, 100 mM HEPES buffer pH 7.4, 25° C."}, "[6]": {"settings": "20 μM compound, 100 mM HEPES buffer pH 7.4, 0.4% DMSO, 25° C."}},
  "data": [
    {"smiles": "COc1cc2cc(-c3ccc(C(=O)O)cc3)oc2cc1NCCN(Cc1ccccn1)Cc1ccccn1", "note": "[Compound (11)]", "values": [
      {"measurement": "Change of the ratio of fluorescence intensities on addition of zinc ions", "setting": "[1]", "value": "changed concentration dependent manner of zinc ions"},
      {"measurement": "Em(nm), after addition of Zn2+", "setting": "[2]; [5]", "value": 528, "unit": "nm"},
      {"measurement": "Ex(nm), after addition of Zn2+", "setting": "[2]; [5]", "value": 335, "unit": "nm"},
      {"measurement": "Em(nm), before addition of Zn2+", "setting": "[2]; [6]", "value": 532, "unit": "nm"},
      {"measurement": "Ex(nm), before addition of Zn2+", "setting": "[2]; [6]", "value": 354, "unit": "nm"},
      {"measurement": "Wavelength shift of the peak of the excitation spectrum on coordination to a zinc ion", "setting": "[2]; blue shift, depending on concentration of zinc ions", "value": "about 20 nm"},
      {"measurement": "Change of the ratio of fluorescence intensities on addition of sodium, calcium, potassium or magnesium ions", "setting": "[3]; ions added up to 400 μM, 20 μM compound, 100 mM HEPES pH 7.4", "value": "no change of the ratio was observed"},
      {"measurement": "Selectivity to zinc ions", "setting": "[3]; versus sodium, calcium, potassium, magnesium ions", "value": "high selectivity to zinc ions"},
      {"measurement": "Change of absorbance at 335 nm on addition of zinc ions", "setting": "[4]; 15 μM compound, ZnSO4 up to 15 μM, HEPES pH 7.4", "value": "increases"},
      {"measurement": "Change of absorbance at the long-wavelength maximum on addition of zinc ions", "setting": "[4]; 365 nm for Compound (14), 354 nm for Compound (11), 15 μM compound, ZnSO4 up to 15 μM", "value": "decreases"},
      {"measurement": "Change of fluorescence excited at the long-wavelength maximum on addition of zinc ions", "setting": "[4]; excited at 365 nm (Compound (14), emission 495 nm) or 354 nm (Compound (11), emission 530 nm)", "value": "decreases"}
    ]}
  ]
}
